Experimental data published in ChEMBL document CHEMBL1124865, “Synthesis and biological evaluation of a series of parenteral 3'-quaternary ammonium cephalosporins” (J Med Chem, 1990).
Converted amounts (≈) assume the structure as drawn.

How the values were obtained:
Type in all cases: functional
[1] = system: Escherichia coli; assay: Antibacterial activity against Escherichia coli EC14
[2] = system: Enterobacter cloacae; assay: Antibacterial activity against Enterobacter cloacae EB5
[3] = system: Klebsiella pneumoniae; assay: microbe, parasite or virus in culture
Description: Antibacterial activity against Klebsiella pneumoniae 1082E

[4] = system: Staphylococcus aureus; assay: In vivo efficacy against Staphylococcus aureus infected mice treated at 1 hr and 5 hr post infection
[5] = system: Escherichia coli; assay: In vivo efficacy against Escherichia coli infected mice treated at 1 hr and 5 hr post infection
[6] = system: Escherichia coli; assay: In vivo efficacy against Escherichia coli infections in mice
[7] = system: Staphylococcus aureus; assay: In vivo efficacy against Staphylococcus aureus infections in mice
[8] = system: Staphylococcus aureus; assay: Antibacterial activity against penicillin G resistance Staphylococcus aureus
[9] = system: Staphylococcus aureus; assay: Antibacterial activity against penicillin G susceptible Staphylococcus aureus
[10] = system: Streptococcus pneumoniae; assay: Antibacterial activity against Streptococcus pneumoniae
[11] = system: Serratia marcescens; assay: Antibacterial activity against Serratia marcescens SE3
[12] = system: Streptococcus pyogenes; assay: Antibacterial activity against Streptococcus pyogenes
[13] = system: Escherichia coli; assay: Antibacterial activity against Escherichia coli TEM
[14] = system: Klebsiella pneumoniae; assay: Antibacterial activity against Klebsiella pneumoniae X26
[15] = system: Pseudomonas aeruginosa; assay: In vivo efficacy against Pseudomonas aeruginosa infected mice treated at 1 hr and 5 hr post infection
[16] = system: Pseudomonas aeruginosa; assay: Antibacterial activity against Pseudomonas aeruginosa X528
[17] = system: Pseudomonas aeruginosa; assay: In vivo efficacy against Pseudomonas aeruginosa infections in mice
[18] = system: Enterobacter cloacae; assay: Antibacterial activity against Enterobacter cloacae 265A
[19] = system: Pseudomonas aeruginosa; assay: Antibacterial activity against Pseudomonas aeruginosa PS18
[20] = system: Enterococcus faecium; assay: Antibacterial activity against Enterococcus faecium; conditions: Enterococcus faecium; read-out: MIC
[21] = Enterobacter cloacae, read-out: MIC
[22] = Escherichia coli, read-out: MIC
[23] = Klebsiella pneumoniae, read-out: MIC
[24] = Pseudomonas aeruginosa, read-out: MIC
[25] = Staphylococcus aureus, read-out: MIC
[26] = Streptococcus pneumoniae, read-out: MIC
[27] = Serratia marcescens, read-out: MIC
[28] = Streptococcus pyogenes, read-out: MIC

SMILES	ED50 [4] [mg/kg]	ED50 [5] [mg/kg]	ED50 [15] [mg/kg]	MIC [16] [µg/mL]	MIC [18, 21] [µg/mL]	MIC [1, 22] [µg/mL]	MIC [2, 21] [µg/mL]	MIC [13, 22] [µg/mL]	MIC [3, 23] [µg/mL]	MIC [14, 23] [µg/mL]	MIC [16, 24] [µg/mL]	MIC [19, 24] [µg/mL]	MIC [8, 25] [µg/mL]	MIC [9, 25] [µg/mL]	MIC [10, 26] [µg/mL]	MIC [11, 27] [µg/mL]	MIC [12, 28] [µg/mL]	MIC [20] [µg/mL]	also measured
CO/N=C(\C(=O)N[C@@H]1C(=O)N2C(C(=O)[O-])=C(C[n+]3cccc(CC(=O)O)c3)CS[C@H]12)c1csc(N)n1 (stereo in doubt; 17)	6.2	<0.16	–	–	–	–	–	–	–	–	–	–	–	–	–	–	–	–	MIC [1]: <0.008 µg/mL; MIC [2]: 0.25 µg/mL (≈ 0.469 µM); MIC [3]: 32 µg/mL (≈ 60.1 µM); MIC [6]: 0.03 µg/mL (≈ 0.0563 µM); MIC [7]: 8 µg/mL (≈ 15 µM); MIC [8]: 16 µg/mL (≈ 30 µM); MIC [9]: 8 µg/mL (≈ 15 µM); MIC [10]: 0.03 µg/mL (≈ 0.0563 µM); MIC [11]: 0.06 µg/mL (≈ 0.113 µM); MIC [12]: 0.03 µg/mL (≈ 0.0563 µM)
CO/N=C(\C(=O)N[C@@H]1C(=O)N2C(C(=O)[O-])=C(C[n+]3ccc(CC(=O)NO)cc3)CS[C@H]12)c1csc(N)n1 (stereo in doubt; 10)	7.2	–	–	–	–	–	–	–	–	–	–	–	–	–	–	–	–	–	MIC [13]: 0.25 µg/mL (≈ 0.457 µM); MIC [14]: 0.03 µg/mL (≈ 0.0548 µM)
CO/N=C(\C(=O)N[C@@H]1C(=O)N2C(C(=O)[O-])=C(C[n+]3ccc(CC(=O)NO)cc3)CS[C@H]12)c1csc(N)n1 (stereo in doubt; 8)	2.5	0.82	>40	32 (≈ 58.4 µM)	–	–	–	–	–	–	–	–	–	–	–	–	–	–	MIC [2]: 0.5 µg/mL (≈ 0.913 µM); MIC [13]: 0.06 µg/mL (≈ 0.11 µM); MIC [3]: 16 µg/mL (≈ 29.2 µM); MIC [9]: 4 µg/mL (≈ 7.3 µM); MIC [11]: 0.5 µg/mL (≈ 0.913 µM)
CO/N=C(\C(=O)N[C@@H]1C(=O)N2C(C(=O)[O-])=C(C[n+]3cccc(CC(=O)O)c3)CS[C@H]12)c1csc(N)n1 (stereo in doubt; 24)	–	0.09	17.4	4 (≈ 7.51 µM)	–	–	–	–	–	–	–	–	–	–	–	–	–	–	MIC [1]: 0.125 µg/mL (≈ 0.235 µM); MIC [3]: 8 µg/mL (≈ 15 µM); MIC [14]: 0.06 µg/mL (≈ 0.113 µM); MIC [17]: 16 µg/mL (≈ 30 µM); MIC [8]: 8 µg/mL (≈ 15 µM); MIC [11]: 0.5 µg/mL (≈ 0.939 µM)
CO/N=C(\C(=O)N[C@@H]1C(=O)N2C(C(=O)[O-])=C(C[n+]3ccc(CC(=O)NO)cc3)CS[C@H]12)c1csc(N)n1 (stereo in doubt; 7)	1.5	0.04	19.6	–	–	–	–	–	–	–	–	–	–	–	–	–	–	–	MIC [10]: 0.015 µg/mL (≈ 0.0274 µM)
CO/N=C(\C(=O)N[C@@H]1C(=O)N2C(C(=O)[O-])=C(C[n+]3cscc3C)CS[C@H]12)c1csc(N)n1	–	–	–	–	8 (≈ 16.2 µM)	0.06 (≈ 0.121 µM)	0.25 (≈ 0.505 µM)	0.06 (≈ 0.121 µM)	8 (≈ 16.2 µM)	0.06 (≈ 0.121 µM)	16 (≈ 32.4 µM)	32 (≈ 64.7 µM)	4 (≈ 8.09 µM)	2 (≈ 4.04 µM)	0.03 (≈ 0.0607 µM)	0.25 (≈ 0.505 µM)	0.03 (≈ 0.0607 µM)	32 (≈ 64.7 µM)	–
CO/N=C(\C(=O)N[C@@H]1C(=O)N2C(C(=O)[O-])=C(C[n+]3ccsc3)CS[C@H]12)c1csc(N)n1	–	–	–	–	32 (≈ 66.6 µM)	0.125 (≈ 0.26 µM)	0.5 (≈ 1.04 µM)	0.125 (≈ 0.26 µM)	8 (≈ 16.6 µM)	0.125 (≈ 0.26 µM)	32 (≈ 66.6 µM)	16 (≈ 33.3 µM)	8 (≈ 16.6 µM)	4 (≈ 8.32 µM)	0.125 (≈ 0.26 µM)	0.25 (≈ 0.52 µM)	0.125 (≈ 0.26 µM)	64 (≈ 133 µM)	–
CO/N=C(\C(=O)N[C@@H]1C(=O)N2C(C(=O)[O-])=C(C[n+]3csc4c3CCC4)CS[C@H]12)c1csc(N)n1	–	–	–	–	4 (≈ 7.68 µM)	0.06 (≈ 0.115 µM)	0.25 (≈ 0.48 µM)	0.06 (≈ 0.115 µM)	4 (≈ 7.68 µM)	0.06 (≈ 0.115 µM)	8 (≈ 15.4 µM)	32 (≈ 61.5 µM)	4 (≈ 7.68 µM)	2 (≈ 3.84 µM)	0.06 (≈ 0.115 µM)	0.125 (≈ 0.24 µM)	0.06 (≈ 0.115 µM)	32 (≈ 61.5 µM)	–
CO/N=C(\C(=O)N[C@@H]1C(=O)N2C(C(=O)[O-])=C(C[n+]3ccc(Cl)cc3)CS[C@H]12)c1csc(N)n1	–	–	–	–	32 (≈ 62.9 µM)	0.06 (≈ 0.118 µM)	0.25 (≈ 0.491 µM)	0.03 (≈ 0.0589 µM)	16 (≈ 31.4 µM)	0.03 (≈ 0.0589 µM)	4 (≈ 7.86 µM)	16 (≈ 31.4 µM)	4 (≈ 7.86 µM)	2 (≈ 3.93 µM)	0.03 (≈ 0.0589 µM)	0.25 (≈ 0.491 µM)	0.015 (≈ 0.0295 µM)	> 128	–
CO/N=C(\C(=O)N[C@@H]1C(=O)N2C(C(=O)[O-])=C(C[n+]3csc(CCOC(C)=O)c3C)CS[C@H]12)c1csc(N)n1	–	–	–	–	2 (≈ 3.44 µM)	0.03 (≈ 0.0517 µM)	0.125 (≈ 0.215 µM)	0.03 (≈ 0.0517 µM)	8 (≈ 13.8 µM)	0.015 (≈ 0.0258 µM)	32 (≈ 55.1 µM)	64 (≈ 110 µM)	4 (≈ 6.89 µM)	2 (≈ 3.44 µM)	0.015 (≈ 0.0258 µM)	0.125 (≈ 0.215 µM)	0.015 (≈ 0.0258 µM)	32 (≈ 55.1 µM)	–
CO/N=C(\C(=O)N[C@@H]1C(=O)N2C(C(=O)[O-])=C(C[n+]3ccc(CC(=O)NO)cc3)CS[C@H]12)c1csc(N)n1 (stereo in doubt; 21)	3.3	0.07	–	1 (≈ 1.83 µM)	–	–	–	–	–	–	–	–	–	–	–	–	–	–	MIC [18]: 16 µg/mL (≈ 29.2 µM); MIC [2]: 0.125 µg/mL (≈ 0.228 µM); MIC [7]: 2 µg/mL (≈ 3.65 µM); MIC [11]: 0.06 µg/mL (≈ 0.11 µM); MIC [12]: 0.015 µg/mL (≈ 0.0274 µM)
CO/N=C(\C(=O)N[C@@H]1C(=O)N2C(C(=O)[O-])=C(C[n+]3cccc4cc[nH]c43)CS[C@H]12)c1csc(N)n1	–	–	–	–	32 (≈ 62.3 µM)	0.5 (≈ 0.974 µM)	2 (≈ 3.89 µM)	0.125 (≈ 0.243 µM)	64 (≈ 125 µM)	0.06 (≈ 0.117 µM)	32 (≈ 62.3 µM)	64 (≈ 125 µM)	8 (≈ 15.6 µM)	1 (≈ 1.95 µM)	0.015 (≈ 0.0292 µM)	0.5 (≈ 0.974 µM)	< 0.008	> 128	–
CO/N=C(\C(=O)N[C@@H]1C(=O)N2C(C(=O)[O-])=C(C[n+]3ccc(CC(=O)NO)cc3)CS[C@H]12)c1csc(N)n1 (stereo in doubt; 13)	>10	0.05	31	16 (≈ 29.2 µM)	–	–	–	–	–	–	–	–	–	–	–	–	–	–	MIC [18]: 128 µg/mL (≈ 234 µM); MIC [17]: 64 µg/mL (≈ 117 µM); MIC [7]: 8 µg/mL (≈ 14.6 µM)
CO/N=C(\C(=O)N[C@@H]1C(=O)N2C(C(=O)[O-])=C(C[n+]3cccc4c(O)cccc43)CS[C@H]12)c1csc(N)n1	–	–	–	–	32 (≈ 59.2 µM)	0.03 (≈ 0.0555 µM)	0.5 (≈ 0.925 µM)	0.06 (≈ 0.111 µM)	8 (≈ 14.8 µM)	0.03 (≈ 0.0555 µM)	8 (≈ 14.8 µM)	8 (≈ 14.8 µM)	2 (≈ 3.7 µM)	2 (≈ 3.7 µM)	0.03 (≈ 0.0555 µM)	0.5 (≈ 0.925 µM)	0.015 (≈ 0.0277 µM)	128 (≈ 237 µM)	–
CO/N=C(\C(=O)N[C@@H]1C(=O)N2C(C(=O)[O-])=C(C[n+]3ccc4c(S(=O)(=O)O)cccc4c3)CS[C@H]12)c1csc(N)n1	–	–	–	–	64 (≈ 106 µM)	0.015 (≈ 0.0248 µM)	0.25 (≈ 0.413 µM)	0.03 (≈ 0.0496 µM)	32 (≈ 52.9 µM)	0.03 (≈ 0.0496 µM)	32 (≈ 52.9 µM)	16 (≈ 26.5 µM)	8 (≈ 13.2 µM)	4 (≈ 6.62 µM)	0.015 (≈ 0.0248 µM)	0.25 (≈ 0.413 µM)	–	> 128	MIC [12]: 0.015 µg/mL (≈ 0.0248 µM)
CO/N=C(\C(=O)N[C@@H]1C(=O)N2C(C(=O)[O-])=C(C[n+]3ccc(CC(=O)NO)cc3)CS[C@H]12)c1csc(N)n1 (stereo in doubt; 12)	5.3	<0.16	8.6	4 (≈ 7.3 µM)	–	–	–	–	–	–	–	–	–	–	–	–	–	–	MIC [18]: >128 µg/mL; MIC [1]: 0.06 µg/mL (≈ 0.11 µM); MIC [2]: 4 µg/mL (≈ 7.3 µM); MIC [13]: 0.125 µg/mL (≈ 0.228 µM); MIC [3]: 32 µg/mL (≈ 58.4 µM); MIC [14]: 0.06 µg/mL (≈ 0.11 µM); MIC [7]: 4 µg/mL (≈ 7.3 µM); MIC [19]: 8 µg/mL (≈ 14.6 µM); MIC [8]: 8 µg/mL (≈ 14.6 µM)
